Patent publication US7759345B2, “Antitumoral derivatives of ET-743” (priority 2001, dated 2010)
Where two headings read alike, the source gives them in different places.

Assays:
[1] = system: HT-29; experiment: Inhibition of cells growth by colorimetric assay (SRB), HT-29; assay type: cell-based
Procedure: (§1) 2°.—Inhibition of Cells Growth by Colorimetric Assay.
(§2) A colorimetric type of assay, using sulforhodamine B (SRB) reaction has been adapted for a quantitative measurement of cell growth and viability [following the technique described by Philip Skehan, et al. (1990), New colorimetric cytotoxicity assay for anticancer drug screening, J. Natl. Cancer Inst., 82:1107-1112]
(§3) This form of the assay employs 96 well cell culture microplates of 9 mm diameter (Faircloth, 1988; Mosmann, 1983). Most of the cell lines are obtained from American Type Culture Collection (ATCC) derived from different human cancer types.
(§4) Cells are maintained in RPMI 1640 10% FBS, supplemented with 0.1 g/l penicillin and 0.1 g/l streptomycin sulfate and then incubated at 37° C., 5% CO2 and 98% humidity. For the experiments, cells were harvested from subconfluent cultures using trypsin and resuspended in fresh medium before plating.
(§5) Cells are seeded in 96 well microtiter plates, at 5×10^3 cells per well in aliquots of 195 μl medium, and they are allowed to attach to the plate surface by growing in drug free medium for 18 hours. Afterward, samples are added in aliquots of 5 μl in a ranging from 10 to 10^−8 μg/ml, dissolved in DMSO/EtOH/PBS (0.5:0.5:99). After 48 hours exposure, the antitumor effect are measured by the SRB methodology: cells are fixed by adding 50 μl of cold 50% (wt/vol) trichloroacetic acid (TCA) and incubating for 60 minutes at 4° C. Plates are washed with deionized water and dried. One hundred μl of SRB solution (0.4% wt/vol in 1% acetic acid) is added to each microtiter well and incubated for 10 minutes at room temperature. Unbound SRB is removed by washing with 1% acetic acid. Plates are air dried and bound stain is solubilized with Tris buffer. Optical densities are read on a automated spectrophotometric plate reader at a single wavelength of 490 nm.
(§6) The values for mean+/−SD of data from triplicate wells are calculated. Some parameters for cellular responses can be calculated: GI=growth inhibition, TGI=total growth inhibition (cytostatic effect) and LC=cell killing (cytotoxic effect).
(§7) Obtained results may predict the usefulness of a certain drug as a potential cancer treatment. For this technique, compounds which show GI50 values smaller than 10 μg/ml are selected to continue with further studies. GI50's data allow to predict that not only could a drug be cystostatic, but also it could have a potential in terms of tumor reduction.

[2] = system: A-549; experiment: Inhibition of cells growth by colorimetric assay (SRB), A-549; assay type: cell-based
Procedure: as §1, §2, §3, §4, §5, §6, §7

[3] = Homo sapiens, HT-29, 48 h, HT-29, SRB, 48 hours exposure, read-out: GI50 HT-29
[4] = Homo sapiens, HT-29, 48 h, read-out: LC50 HT-29, HT-29, SRB, 48 hours exposure
[5] = Homo sapiens, A549, 48 h, A-549, SRB, 48 hours exposure, read-out: GI50 A-549
[6] = Homo sapiens, A549, 48 h, read-out: LC50 A-549, A-549, SRB, 48 hours exposure
[7] = Homo sapiens, HT-29, 48 h, read-out: HT-29 GI50
[8] = Homo sapiens, HT-29, 48 h, read-out: HT-29 LC50, HT-29, SRB, 48 hours exposure
[9] = Homo sapiens, A549, 48 h, read-out: A-549 GI50
[10] = Homo sapiens, A549, 48 h, read-out: A-549 LC50, A-549, SRB, 48 hours exposure
[11] = Homo sapiens, HT-29, 48 h, HT-29, SRB, 48 hours exposure, read-out: HT-29 GI50
[12] = Homo sapiens, A549, 48 h, A-549, SRB, 48 hours exposure, read-out: A-549 GI50

Row | Compound | TGI HT-29 ([1]; HT-29, SRB, 48 hours exposure) | GI50 [1, 3] [nM] | LC50 (concentration for 50% cell killing) [1, 4] [nM] | TGI A-549 ([2]; A-549, SRB, 48 hours exposure) | GI50 [2, 5] [nM] | LC50 (concentration for 50% cell killing) [2, 6] [nM] | HT-29 TGI ([1]; HT-29, SRB, 48 hours exposure) | A-549 TGI ([2]; A-549, SRB, 48 hours exposure) | further results
1 | COc1cc2c(cc1OC(=O)C(F)(F)C(F)(F)C(F)(F)F)CCN[C@]21CS[C@@H]2c3c(OC(C)=O)c(C)c4c(c3[C@H](COC1=O)N1C2[C@H]2c3c(cc(C)c(OC)c3O)C[C@@H]([C@@H]1C#N)N2C)OCO4 (stereo partly drawn) [Compound 13] | 3.24E-10 | 0.324 | 10.8 | 3.24E-09 | 1.08 | 8.65 |  |  | 
2 | COc1cc2c(cc1OC(=O)c1cc3ccccc3oc1=O)CCN[C@]21CS[C@@H]2c3c(OC(C)=O)c(C)c4c(c3[C@H](COC1=O)N1C2[C@H]2c3c(cc(C)c(OC)c3O)C[C@@H]([C@@H]1C#N)N2C)OCO4 (stereo partly drawn) [Compound 21] | 1.06E-07 | 5.31 | 10600 | 1.06E-08 | 3.34 | 10600 |  |  | 
3 | C=COC(=O)Oc1cc2c(cc1OC)[C@@]1(CS[C@@H]3c4c(OC(C)=O)c(C)c5c(c4[C@H](COC1=O)N1C3[C@H]3c4c(cc(C)c(OC)c4O)C[C@@H]([C@@H]1C#N)N3C)OCO5)NCC2 (stereo partly drawn) [Compound 29] | 2.16E-09 | 2.16 | 1080 | 4.32E-09 | 2.16 | 10.8 |  |  | 
4 | C=COC(=O)Oc1cc2c(cc1OC)[C@@]1(CS[C@@H]3c4c(OC(C)=O)c(C)c5c(c4[C@H](COC1=O)N1C3[C@H]3c4c(cc(C)c(OC)c4OC(=O)OC=C)C[C@@H]([C@@H]1C#N)N3C)OCO5)NCC2 (stereo partly drawn) [Compound 30] | 8.78E-08 | 87.8 | 11000 | 5.49E-08 | 32.9 | 3290 |  |  | 
5 | C=COC(=O)Oc1cc2c(cc1OC)[C@@]1(CS[C@@H]3c4c(OC(C)=O)c(C)c5c(c4[C@H](COC1=O)N1C3[C@H]3c4c(cc(C)c(OC)c4OC(=O)OC=C)C[C@@H]([C@@H]1C#N)N3C)OCO5)N(C(=O)OC=C)CC2 (stereo partly drawn) [Compound 31] | 8.15E-08 | 81.5 | 10200 | 9.17E-08 | 40.8 | 1020 |  |  | 
6 | C=COC(=O)Oc1cc2c(cc1OC)[C@@]1(CS[C@@H]3c4c(OC(C)=O)c(C)c5c(c4[C@H](COC1=O)N1C3[C@H]3c4c(cc(C)c(OC)c4O)C[C@@H]([C@@H]1C#N)N3C)OCO5)N(C(=O)OC=C)CC2 (stereo partly drawn) [Compound 32] | 6.60E-09 | 1.1 | 9.88 | 6.59E-09 | 2.2 | 11 |  |  | 
7 | C=COC(=O)N1CCc2cc(O)c(OC)cc2[C@@]12CS[C@@H]1c3c(OC(C)=O)c(C)c4c(c3[C@H](COC2=O)N2C1[C@H]1c3c(cc(C)c(OC)c3O)C[C@@H]([C@@H]2C#N)N1C)OCO4 (stereo partly drawn) [Compound 33] | 1.25E-07 | 34.2 | 12500 | 2.50E-08 | 4.37 | 12700 |  |  | 
8 | COc1cc2c(cc1OC)[C@@]1(CS[C@@H]3c4c(OC(C)=O)c(C)c5c(c4[C@H](COC1=O)N1C3[C@H]3c4c(cc(C)c(OC)c4O)C[C@@H]([C@@H]1C#N)N3C)OCO5)NCC2 (stereo partly drawn) [Compound 34] | 1.29E-08 | 0.809 | 12700 | 2.84E-09 | 0.764 | 9.06 |  |  | 
9 | COc1cc2c(cc1OC)[C@@]1(CS[C@@H]3c4c(OC(C)=O)c(C)c5c(c4[C@H](COC1=O)N1C3[C@H]3c4c(cc(C)c(OC)c4OC)C[C@@H]([C@@H]1C#N)N3C)OCO5)NCC2 (stereo partly drawn) [Compound 35] | 1.25E-08 | 5.41 | 12500 | 7.22E-08 | 5.68 | 2150 |  |  | 
10 | COc1cc2c(cc1O)CCN[C@]21CS[C@@H]2c3c(OC(C)=O)c(C)c4c(c3[C@H](COC1=O)N1C2[C@H]2c3c(cc(C)c(OC)c3OC)C[C@@H]([C@@H]1C#N)N2C)OCO4 (stereo partly drawn) [Compound 36] | 2.55E-08 | 5.67 | 12700 | 1.03E-07 | 6.26 | 4140 |  |  | 
11 | C=COC(=O)Oc1c(C)c2c(c3c1[C@H]1SC[C@]4(NCCc5cc(OC(=O)OC(C)(C)C)c(OC)cc54)C(=O)OC[C@@H]3N3C1[C@H]1c4c(cc(C)c(OC)c4O)C[C@@H]([C@@H]3C#N)N1C)OCO2 (stereo partly drawn) [Compound 118] |  |  |  |  |  |  | 7.79E-09 | 8.90E-08 | GI50 [1, 7]: 7.79 nM; LC50 (concentration for 50% cell killing) [1, 8]: 11100 nM; GI50 [2, 9]: 3.34 nM; LC50 (concentration for 50% cell killing) [2, 10]: 2220 nM
12 | COc1cc2c(cc1OC(=O)OC(C)(C)C)CCNC21CSC2c3c(OC(=O)CCCCC4SCC5NC(=O)NC54)c(C)c4c(c3C(COC1=O)N1C(C#N)C3Cc5cc(C)c(OC)c(O)c5C(C21)N3C)OCO4 (stereo not drawn) [Compound 123] |  |  |  |  |  |  | 3.14E-09 | 2.09E-08 | GI50 ([1]; HT-29, SRB, 48 hours exposure, read-out: HT-29 GI50): 3.14 nM; CC50 ([1]; HT-29, SRB, 48 hours exposure, read-out: HT-29 LC50): 31.4 nM; GI50 ([2]; A-549, SRB, 48 hours exposure, read-out: A-549 GI50): 7.33 nM; LC50 (50% lethal concentration) ([2]; A-549, SRB, 48 hours exposure, read-out: A-549 LC50): 73.3 nM
13 | COc1cc2c(cc1OC(=O)OC(C)(C)C)CCN[C@]21CS[C@@H]2c3c(OC(=O)[C@H](C)NC(=O)OC(C)(C)C)c(C)c4c(c3[C@H](COC1=O)N1C2[C@H]2c3c(cc(C)c(OC)c3O)C[C@@H]([C@@H]1C#N)N2C)OCO4 (stereo partly drawn) [Compound 125] |  |  |  |  |  |  | 2.00E-10 | 3.00E-09 | GI50 [1, 11]: 0.2 nM; LC50 (concentration for 50% cell killing) [1, 8]: 3 nM; GI50 [2, 12]: 1 nM; LC50 (concentration for 50% cell killing) [2, 10]: 8 nM
14 | COc1cc2c(cc1O)CCN[C@]21CS[C@@H]2c3c(OC(=O)C(F)(F)C(F)(F)C(F)(F)F)c(C)c4c(c3[C@H](COC1=O)N1C2[C@H]2c3c(cc(C)c(OC)c3O)C[C@@H]([C@@H]1C#N)N2C)OCO4 (stereo partly drawn) [Compound 143] |  |  |  |  |  |  | 1.08E-08 | 4.32E-08 | GI50 [1, 7]: 10.8 nM; LC50 (concentration for 50% cell killing) [1, 8]: 10800 nM; GI50 [2, 9]: 21.6 nM; LC50 (concentration for 50% cell killing) [2, 10]: 108 nM
15 | COc1cc2c(cc1O)CCN[C@]21CS[C@@H]2c3c(OC(=O)CCCC[C@@H]4SCC5NC(=O)NC54)c(C)c4c(c3[C@H](COC1=O)N1C2[C@H]2c3c(cc(C)c(OC)c3O)C[C@@H]([C@@H]1C#N)N2C)OCO4 (stereo partly drawn) [Compound 147] |  |  |  |  |  |  | 1.05E-07 | 6.84E-08 | GI50 [1, 11]: 19.7 nM; LC50 (concentration for 50% cell killing) [1, 8]: 10500 nM; GI50 [2, 12]: 32.6 nM; LC50 (concentration for 50% cell killing) [2, 10]: 1050 nM
